T1: Cathepsin K (Homo sapiens, UniProt P43235)
T1 sequence (P43235 115-329): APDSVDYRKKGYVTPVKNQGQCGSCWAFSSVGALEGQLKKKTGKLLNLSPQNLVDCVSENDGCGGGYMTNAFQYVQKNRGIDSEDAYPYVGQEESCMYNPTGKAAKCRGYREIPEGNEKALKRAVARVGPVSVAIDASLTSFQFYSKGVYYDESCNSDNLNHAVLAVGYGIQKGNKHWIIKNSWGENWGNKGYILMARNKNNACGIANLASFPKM

B1: RANKL: Receptor Activator NFKB Ligand; stimulates RAW 264.7 cells to generate bone pit resorptive osteoclasts (protein, UniProt O35235 139-316, looked up)
Tumor necrosis factor ligand …: FSGAPAMMEGSWLDVAQRGKPEAQPFAHLTINAASIPSGSHKVTLSSWYHDRGWAKISNMTLSNGKLRVNQDGFYYLYANICFRHHETSGSVPTDYLQLMVYVVKTSIKIPSSHNLMKGGSTKNWSGNSEFHFYSINVGGFFKLRAGEEISIQVSNPSLLDPDQDATYFGAFKVQDID

Tests used:
[1] = target: T1, Cathepsin K; assay: Cathepsin K bone collagen digests (release of bone collagen, hydroxyproline); type: biochemical; conditions: overall conclusion; Cathepsin K mediated release of bone collagen (FIG. 1)
Experimental: Fresh ovine bone was milled in a stainless steel mortar and pestle in liquid nitrogen. The resultant bone powder was defatted, decalcified and freeze-dried before storage at 4° C.
(ii) Cathepsin K Bone Collagen Digests • 2 mg of insoluble bone collagen powder was digested in 100 mM sodium acetate pH 5.5 containing 2.5 mM dithiothreitol and 2.5 mM EDTA with […] Cathepsin K and increasing doses of PPS. • Digestions were incubated at 37° C. for 24 hours and terminated by the addition of 2 μM E84. Residue and supernatant were hydrolysed separately and the hydroxyproline content measured.

[2] = system: RAW 264.7 cells; assay: Multinucleated (OCL) cell count in RAW 264.7 cell cultures ± RANKL; type: cell-based, Murine
Experimental: (iii) RAW 264.7 Cells • Murine macrophage RAW 264.7 cells respond to Receptor Activator NFKB Ligand (RANKL) stimulation to generate bone pit resorptive osteoclasts. • RAW cells were pre-cultured for several days in High-Glucose Dulbecco's Modified Eagles Medium (HG-DMEM) with 10% Fetal Calf Serum […] (0-50 μg/mL). • Cells were incubated at 37° C., 5% CO2 for 4 days. • The number of multinucleated cells present in each was counted by two observers at day 2, 3 and 4. The cells were then harvested for RNA extraction and subsequent RT-PCR.
(iv) H&E Staining • Identical cultures were prepared in petri dishes containing pre-labelled slides and incubated for 4 days, after which slides were carefully rinsed in PBS, immersed in ice-cold acetone and air-dried before freezing. • The slides were then stained with H&E before multinucleated osteoclasts were photographed and counted.

[3] = system: MMP-9 gene expression; assay: MMP9 gene expression by RAW 264.7 cells ± RANKL (RT-PCR); type: cell-based, Murine
Experimental: (§1) (iii) RAW 264.7 Cells • Murine macrophage RAW 264.7 cells respond to Receptor Activator NFKB Ligand (RANKL) stimulation to generate bone pit resorptive osteoclasts. • RAW cells were pre-cultured for several days in High-Glucose Dulbecco's Modified Eagles Medium (HG-DMEM) with 10% Fetal Calf Serum (FCS). • Cells were seeded at 250,000 cells/mL in HG-DMEM/10% FCS with/without […] RANKL and increasing doses of PPS (0-50 μg/mL). • Cells were incubated at 37° C., 5% CO2 for 4 days. • The number of multinucleated cells present in each was counted by two observers at day 2, 3 and 4. The cells were then harvested for RNA extraction and subsequent RT-PCR.

[4] = system: Cathepsin K gene expression; assay: Cathepsin K gene expression by RAW 264.7 cells ± RANKL (RT-PCR); type: cell-based, Murine
Experimental: as §1

| Cathepsin K activity [1] | Molecule | RANKL-induced multinucleated OCL cell formation ([2]; day 4, 0.5 μg/mL CaXPS vs absence of CaXPS, p<0.05 (FIG. 4B)) | RANKL-induced formation of true multinucleated (>4 nuclei/cell) OCL cells ([2]; day 4, 10 μg/mL CaXPS (FIG. 4B)) | RANKL-induced formation of true multinucleated (>4 nuclei/cell) OCL cells ([2]; day 4, 50 μg/mL CaXPS (FIG. 4B)) | number of cells containing 2-3 nuclei as a percentage total cells ([2]; day 4, 50 μg/mL CaXPS, in the presence of RANKL, p<0.05 (FIG. 4A)) | number of cells containing 2-3 nuclei as a percentage total cells ([2]; day 4, − vs + RANKL, at most concentrations of CaXPS (FIG. 4A)) | MMP-9 gene expression ([3]; day 4, increasing concentrations of CaXPS in the absence of RANKL (FIG. 5B)) | MMP-9 expression ([3]; day 4, presence of RANKL, 5 μg/mL CaXPS, p<0.05 (FIG. 5B)) | Cathepsin K gene expression ([4]; day 4, increasing concentrations of CaXPS in the absence of RANKL (FIG. 5A)) | Cathepsin K expression ([4]; day 4, presence of RANKL, lowest dose of CaXPS, p<0.05 (FIG. 5A)) | development of multinucleated cells ([2]; RANKL 20 ng/mL added to RAW cells, by day 3, p<0.05 (FIGS. 2 and 3)) | expression of MMP-9 by RAW cells ([3]; RANKL alone vs no RANKL (FIG. 5B)) | expression of Cathepsin K by RAW cells ([4]; RANKL alone vs no RANKL (FIG. 5A)) |
| --- | --- | --- | --- | --- | --- | --- | --- | --- | --- | --- | --- | --- | --- |
| down regulation | calcium xylopyranose polysulfate [CaXPS] | significantly more | inhibited | inhibited | significantly more 2-3 nucleated cells | still significantly increased | no marked effect | decrease | no marked effect | significant increase |  |  |  |
|  | B1 |  |  |  |  |  |  |  |  |  | significant development of multinucleated cells | increased | increased |

Reference: patent US20130102562A1, “INHIBITION OF CATHEPSIN K ACTIVITY AND THE TREATMENT AND PREVENTION OF DISEASE” (SYLVAN PHARMACEUTICALS PTY LTD., priority 2006, published 2013)
